Measured values: patent publication US20050049228A1, “Antimicrobial photodynamic therapy compound and method of use” (CeramOptec Industries Inc., priority 2003, published 2005)

Key:
Assay in all cases: Photodynamic inactivation of bacterial cell suspensions (CFU count after 532 nm laser irradiation)
Assay type in all cases: cell-based
[1] = system: Escherichia coli DSM 8698; conditions: in presence of blood serum or plasma in the treatment suspensions, 10 μM, 100 μM, 1 mM, 30 min dark incubation, about 100 J/cm^2
Experimental: (§1) The organisms used in our studies were three members of the microflora of wounds: Staphylococcus aureus DSM1104 (A TCC 25923), Gram-positive; Escherichia coli DSM 8698, Gram-negative; Pseudomonas aeruginosa DSM 1117 (ATCC 27853), Gram-negative. All strains were grown aerobically overnight at 37° C. in Tryptic Soy Broth (Merck KGaA Darmstadt, Germany). Cells were harvested by centrifugation and resuspended in sterile phosphate-buffered saline (PBS) or sterile PBS supplemented with 10% sterile horse blood serum (Oxoid), 10% human plasma or 10% human blood (both freshly obtained from donors), respectively. The final OD (Optical Density) at 600 nm, 1 cm in all cases was 0.03.
(§2) Aliquots (190 μl) of the bacterial suspensions were placed into sterile black 96 well plates with clear bottom (Costar® 3603, Corning Inc., USA). 10 μl of three different Safranin O stock solutions were added to obtain the final photosensitizer concentrations of 10 μM, 100 μM and 1 mM, respectively. The plates were incubated for 30 minutes in the dark at room temperature.
(§3) After incubation the samples were exposed to light from a laser Ceralas G2 (biolitec AG, Germany), 532 nm, power set to 0.5 W, irradiation time of […] via a light fiber from the bottom of the plate. The fluence rate for these settings was about 1.2 W/cm^2 (measured with Optometer P-9710, Gigahertz-Optik GmbH, Puchheim, Germany). With the irradiation time, the resulting energy fluence was about 100 J/cm^2.
(§4) Control wells contained no Safranin O and were not exposed to laser light. The control samples for dark toxicity were only exposed to Safranin O (end concentration of 1 mM) without any illumination.
(§5) After illumination the samples were removed from the wells of the plate, diluted with Tryptic Soy Broth and plated by using spiral plater Eddy Jet (iul Instruments, Barcelona, Spain) on Tryptic Soy agar plates. The numbers of colony-forming units (CFU/ml) were enumerated after adequate incubation by using colony counter Countermat Flash (iul Instruments, Barcelona, Spain).

[2] = system: Pseudomonas aeruginosa DSM 1117 (ATCC 27853); conditions: in presence of blood serum or plasma in the treatment suspensions, 10 μM, 100 μM, 1 mM, 30 min dark incubation, about 100 J/cm^2
Experimental: as §1, §2, §3, §4, §5

[3] = system: Staphylococcus aureus DSM1104 (ATCC 25923); conditions: cell suspensions in PBS and in PBS+10% horse blood serum, PBS+10% human plasma, 10 μM, 100 μM, 1 mM, 30 min dark incubation, about 100 J/cm^2
Experimental: as §1, §2, §3, §4, §5

SMILES: Cc1cc2nc3cc(C)c(N)cc3[n+](-c3ccccc3)c2cc1N.[Cl-] [Safranin O]
- killing of cell suspensions by PDT treatment [1]: sufficient killing
- killing of cell suspensions by PDT treatment [2]: sufficient killing
- killing effect by PDT treatment [3]: very good killing effect
